From patent US9764014B2, “Use of toll-like receptor ligands as adjuvants to vaccination therapy for brain tumors” (Cedars-Sinai Medical Center, priority 2008, dated 2017) come the findings set out here.

The subject of assay [1] is BMDC. In words: IL-6, TNF-α and IL-12 ELISA of BMDC activated by GL26 lysate vs. TLR ligands. The class given is cell-based, C57BL/6 mice. The settings on record: FIG. 9 bottom panel, GL26 lysate plus TLR ligand. As for the experimental part: Experiments were performed with at least three replicates per condition. As controls for these experiments the inventors utilized brain tissue lysate obtained from healthy C57BL/6 mice and untreated DCs. Furthermore, for each TLR ligand, the inventors utilized up to three different concentrations previously shown to activate dendritic cells in order to identify the best concentration for maximal activation of BMDC. […] However, TLR ligands alone consistently promote increases the dependent variables measured to a greater degree than TLR ligands with tumor lysate. However, it is likely that activation by TLR ligands alone would not prime T cells to be tumor antigen specific. […] Therefore, ELISA on BMDC treated with GL26 lysate and individual TLR ligands were performed as described above. […] TNF-α and IL-12 (FIG. 9).
Primary BMDCs were isolated from the femurs of 6-10 week old C57BL/6 mice and cultured in RPMI cell culture media with GM-CSF (1000 IU/ML) and IL-4 (1000 IU/ML). BMDCs (1×10^6 cells/ml) were maintained in cell culture at 37° C., 5% CO2 and exposed to with […] GL26 freeze-thaw lysate and either TLR2 ligand (Pam3Cys, 50 μg/ml), TLR4 ligand (LPS 50 ng/ml), or TLR9 ligand (CpG ODN 1826, 5 μM) overnight (ON). Control cells were treated with […] GL26 freeze-thaw lysate only. […]
(In general: ELISA stands for enzyme-linked immunosorbent assay.)

The subject of assay [2] is primary dendritic cells from MyD88−/− and wild-type controls. In words: ELISA for TNF-alpha in primary DC treated with LPS. It is filed as cell-based, mice. The text has this:
While the inventors provide evidence that GL26 tumor cells and TLR ligands activate DC2.4 cells, it is unknown if GL26 lysate activation is signaling through MyD88−/− and/or TRIF dependent pathways. It is possible that the GL26 tumor cell activation is signaling through TLRs or at least through downstream signaling molecules MyD88 and/or TRIF. Therefore, the inventors isolated primary dendritic cells from MyD88−/− and wild-type controls and exposed them to GL26 lysate and TLR ligand LPS. The inventors believe that LPS activation in MyD88−/− DC will not show up-regulation of TNF-alpha protein as measured by ELISA.

In assay [3] the test system is primary BMDC. In words: IL-6 ELISA from primary BMDC derived from MyD88−/− and littermate controls. The class given is cell-based, mice. The settings on record: MyD88−/− DC compared to BMDC from wild-type littermate controls; LPS 100 ng/ml or 10 ng/ml with GL26 lysate. As for the experimental part:
Briefly, BMDCs were cultured in 24-well plates at 3×10^5 cells/ml and exposed to TLR ligands and lysate for 24 hours. Cell culture media were collected for ELISA analysis against IL-6, TNF-α and IL-12. Three independent experiments with at least three replicates per experiment were performed.
While the inventors provide evidence that GL26 tumor cells and TLR ligands activate primary BMDC. […] It is possible that the GL26 tumor cell activation is signaling through TLRs or at least through downstream signaling molecule MyD88. Therefore, primary dendritic cells from MyD88−/− and Wild-type controls were isolated and exposed to GL26 lysate and TLR ligand LPS at 100 ng/ml or 10 ng/ml. The inventors believe that LPS activation in MyD88−/− DC will not show up-regulation of secreted IL-6 protein as measured by ELISA. […] Furthermore, no significant difference exists between MyD88−/− and wild-type derived BMDC exposed to brain lysate (FIG. 10).
Primary BMDCs were isolated from the bone marrow of femurs of euthanized MyD88−/− and their +/+ littermate controls as described above. BMDCs were activated using 1) GL26 tumor lysate alone; 2) TLR ligands (Pam3cys (50 μg/ml) or LPS (50 ng/ml) or CpG ODN (5 μM) and tumor lysate for each; 3) Treatment of DCs with brain lysate alone may also serves as a control condition.

With Pam3cys, the IL-12 protein production entry in assay [1] was “relatively limited increases”.

In the case of lipopolysaccharide [LPS], the “TNF-alpha protein by ELISA” value in assay [2] (MyD88−/− DC) was “no up-regulation”; in assay [2] (wild-type DCs, compared to controls), “significant up-regulations”. Moreover, the “IL-6 secreted protein levels by ELISA” value in assay [3] is reported as “reduced”.
